Measured values reported in article PMC12631721, “Preclinical Screening Platform Identifies Azatadine‐Dimaleate as a Potent Repurposed Therapeutic Against SARS‐CoV‐2 Infection” (Journal of Medical Virology, 2025).
Values joined by “and” are separate entries in the source; they are usually repeats but may differ in a detail not shown here. Identical values can stand only once. “Also recorded” adds a separate entry of the source. Like-named read-outs stand apart in the source and are kept apart here.

How the values were obtained:
[1] = system: SARS‐CoV‐2; experiment: microbe, parasite or virus in culture; assay type: cell-based
[2] = system: SARS‐CoV‐2; assay type: cell-based; conditions: Calu‐3 pretreated 24 h before infection, MOI = 0.1, plaque assay
[3] = system: SARS‐CoV‐2; experiment: Viral NSP12 RNA by RT‐qPCR in Calu‐3 cells; assay type: cell-based; conditions: Calu‐3, RT‐qPCR
Protocol: (A) Cell viability assessment in uninfected Calu‐3 cells treated with DMSO control, Azatadine‐Dimaleate (25 µM), Remdesivir (1 µM), or the combination (Remdesivir 1 µM + Azatadine 25 µM) for 72 h. […] (B) Release of infectious virus was quantified by plaque assay. Calu‐3 cells were pretreated with Azatadine‐Dimaleate (5 & 25 µM) or Remdesivir (1 µM) 24 h before infection with SARS‐CoV‐2 PHE (MOI = 0.1). (C) Levels of viral NSP12 RNA was measured by RT‐qPCR following treatment with Azatadine‐Dimaleate at (5 & 25 µM) or Remdesivir (1 µM) 24 h before infection with SARS‐CoV‐2 (PHE MOI = 0.1). Data bars represent mean ± SEM of n = 3 independent experiments. Statistical analysis by one‐way ANOVA, ***p ≤ 0.001 vs DMSO control. […] DMSO alone was used as a negative control. At 72 hpi viral titres were determined by plaque assay. Data points represent an average of 3 separate repeat experiments ±SEM.
For RNA extraction, cultures were incubated with 400 µL of Lysis/Binding buffer (High Pure Isolation Kit; Roche) for 5 min at room temperature. […] RNA was quantified by spectrophotometry and 1 µg was transcribed into cDNA using The High‐Capacity cDNA Reverse Transcription Kit (Applied Biosystems, Thermo Fisher Scientific) in 0.2 mL PCR reaction tubes (Eppendorf). […] Ready‐made catalogue assays for a set of primers and probes (FAM labelled) (Thermofisher) specific for human genes involved in the innate immune response to SARS‐COV‐2 such as: IFNL1 (Assay ID: Hs00601677 g1, Cat. No:433118) IFNB (Assay ID:Hs01077958_s1, Cat. No. 4331182), ISG15 (Assay ID: Hs01921425 s1, catalogue no:4331182), IFIT1 (Hs03027069_s1, Cat no. 4331182), IL6 (Hs00174131_m1, Cat no. 4331182) and CXCL8/IL8 (Bt03211906_m1, Cat no. 4331182) were selected for analyses.
(§1) When performing qPCR the Roche probe mixes for the detection of TBP (Cat. No. 05189284001) and GAPDH (Assay ID: Hs02786624_g1, Cat. No:4331182) were used as references. The LightCycler® 480 Probes Master mix was used following the manufacturer's protocol to quantify the mRNA expression levels for all genes of interest. […]

[4] = system: SARS‐CoV‐2; experiment: microbe, parasite or virus in culture; assay type: cell-based; conditions: for Improvement in potency in combination vs alone: Calu‐3, ratio of EC50 alone to EC50 in combination; for EC50: Severe acute respiratory syndrome coronavirus 2, Calu‐3, pretreated 24 h, PHE MOI = 0.1, 72 hpi, viral titres by plaque assay, read-out: EC50, drug alone
[5] = system: SARS‐CoV‐2; assay type: cell-based; conditions: WD‐PBECs; for Reduction in viral titers compared to DMSO (significance): Remdesivir 1 µM, Azatadine‐Dimaleate 25 µM, or combination 0.4 µM + 10 µM, 48, 72, 96 hpi
[6] = system: SARS‐CoV‐2 LIV strain; assay type: in vivo, K18‐hACE2 mice; conditions: for Mean weight loss: Azatadine‐Dimaleate 10 mg/kg i.p. daily, remdesivir (as GS‐441524) 25 mg/kg daily, vehicle 12%; for Histopathology score: single animal shown in Fig. S5, 4 dpi, vehicle treated animal score 4
[7] = system: Calu‐3 cells; experiment: Cell viability / cytotoxicity in uninfected Calu‐3 cells; conditions: 72 h, Azatadine‐Dimaleate 25 µM, Remdesivir 1 µM, or combination (1 µM + 25 µM)
[8] = system: SARS‐CoV‐2; experiment: CPE-based high-throughput screen (CellTox Green) in Vero cells; assay type: cell-based
[9] = system: SARS‐CoV‐2; experiment: CPE-based high-throughput screen (CellTox Green) in Calu‐3 cells; assay type: cell-based
[10] = system: IFNL1, IFNB, IFIT1, ISG15, IL6, CXCL8/IL8; experiment: Innate immune response gene expression by RT‐qPCR in infected WD‐PBECs; assay type: cell-based, human; conditions: 96 hpi, treatment from 24 hpi
Protocol: Figure 5 Azatadine‐Dimaleate modulates innate immune responses in WD‐PBEC cultures. RNA samples were harvested at 96 hpi from each condition in duplicate from WD‐PBECs and a panel of selected innate immune genes (IFNL1, IFNB, IFIT1, ISG15, IL‐6, CXCL8/IL8), were quantified using RT‐qPCR assay. The relative ratios for each gene were calculated in reference to a house keeping gene GAPDH using light cycler 96 software 1.1. The data value plotted for each donor in each condition is an average of 2 biological duplicate Transwells and four technical replicates. Where possible, statistical significance was determined using unpaired Student t‐test between DMSO control and individual treatments (*p ≤ 0.05, **p ≤ 0.01).
For RNA extraction, cultures were incubated with 400 µL of Lysis/Binding buffer (High Pure Isolation Kit; Roche) for 5 min at room temperature. […] RNA was quantified by spectrophotometry and 1 µg was transcribed into cDNA using The High‐Capacity cDNA Reverse Transcription Kit (Applied Biosystems, Thermo Fisher Scientific) in 0.2 mL PCR reaction tubes (Eppendorf). […]
as §1

[11] = system: SARS‐CoV‐2; design: method as in PMID 32366720; conditions: Vero cells; cited from earlier work
[12] = system: SARS‐CoV‐2; design: method as in PMID 37100830; conditions: clinical trial by Klussmann and colleagues; cited from earlier work
[13] = Severe acute respiratory syndrome coronavirus 2, Calu‐3 cells, PHE MOI = 0.1, 72 hpi, 7 serial 1 in 2 dilutions from 20 µM, read-out: EC50 (CPE inhibition)
[14] = Severe acute respiratory syndrome coronavirus 2, Vero cells, 5 µM, drug 24 h before infection, MOI = 0.1, 72 hpi
[15] = Severe acute respiratory syndrome coronavirus 2, Calu‐3 cells, 5 µM, drug 24 h before infection, MOI = 0.1, 72 hpi
[16] = Calu‐3 cells, 5 µM, drug 24 h before infection, MOI = 0.1, 72 hpi
[17] = Vero cells, 5 µM, drug 24 h before infection, MOI = 0.1, 72 hpi

## CCC(CC)COC(=O)[C@H](C)N[P@](=O)(OC[C@H]1O[C@@](C#N)(c2ccc3c(N)ncnn23)[C@H](O)[C@@H]1O)Oc1ccccc1 [Remdesivir]
[1]; [13]
  EC50: 600 nM
[2]; 1 µM
  Inhibitory activity on viral titres: comparable inhibitory activity to 25 µM Azatadine‐Dimaleate
[3]; 1 µM
  Suppression of viral NSP12 RNA levels: > 95%
[4]
  Improvement in potency in combination vs alone: 2.4 fold
  EC50: 600 nM
[5]
  Reduction in viral titers compared to DMSO (significance): greatest reduction in viral titers
[6]; […]
  Mean weight loss: failed to prevent significant weight loss
[6]; mouse, in vivo
  Pulmonary viral RNA load (qRT‐PCR) vs vehicle: reduction achieved statistical significance
[6]
  Histopathology score: 3
[7]
  Cytotoxicity (cell viability): No cytotoxic effects

## CC(C)n1nc(-c2ccc3oc(N)nc3c2)c2c(N)ncnc21 [Sapanisertib]
[8]; [14]
  inhibition at 5 µM: 80 to 90%
[9]; [15]
  inhibition at 5 µM: 80 to 90%

## CCN(CC)CCCC(C)Nc1ccnc2cc(Cl)ccc12 (centres unmarked) [Chloroquine]
[8]; [14]
  inhibition at 5 µM: 100%
[9]; [16]
  % of CPE inhibition: negligible antiviral activity

## CCN(CCO)CCCC(C)Nc1ccnc2cc(Cl)ccc12 (centres unmarked) [hydroxychloroquine]
[8]; [14]
  inhibition at 5 µM: 100%
[9]; [16]
  % of CPE inhibition: negligible antiviral activity

## CN1CCC(=C2c3ccccc3CCc3cccnc32)CC1 [Azatadine‐Dimaleate]
[8]; [14]
  inhibition at 5 µM: 88.5%
[9]; [15]
  inhibition at 5 µM: 97.6%
[1]; [13]
  EC50: 4000 nM
[2]; 5 µM
  Reduction in viral titres: approximately 100 fold
[2]; 25 µM
  Reduction in viral titres: ~ 5,000 fold and > 5,000 fold
[3]; 5 µM
  Reduction of viral NSP12 RNA levels relative to untreated controls: approximately 50%
[3]; 25 µM
  Suppression of viral NSP12 RNA levels: > 95%
[4]
  Improvement in potency in combination vs alone: twofold
  EC50: 4000 nM
[5]; 48 hpi
  Lowering of peak viral titers compared to controls: 1.4 log10
[5]; 96 hpi
  Lowering of peak viral titers compared to controls: 2.33 log10
[5]
  Reduction in viral titers compared to DMSO (significance): significantly reduced viral titers at 72 and 96 hpi
[10]
  Expression of innate immune response genes (IFNL1, IFNB, IFIT1, ISG15, IL6, CXCL8/IL8): significant reductions in all except CXCL8/IL8
[6]; day 4 post infection, morphometric analysis of SARS‐CoV‐2 N antigen
  Reduction of viral antigen expression in lung (immuno‐stained area): approximately 50%
[6]; day 4 post infection
  Mean weight loss: 4%
[6]; mouse, in vivo
  Infectious virus in lung by plaque assay vs vehicle: statistical significance reached
  Reduction of viral antigen expression in lung (immuno‐stained area): halved
[6]
  Histopathology score: 2
[7]
  Cytotoxicity (cell viability): no discernible toxicity; also recorded: No cytotoxic effects

## CCOC(=O)N1CCC(=C2c3ccc(Cl)cc3CCc3cccnc32)CC1 [Loratadine]
[8]; [17]
  % of CPE inhibition: negligible activity
[9]; [16]
  % of CPE inhibition: negligible activity

## CS(=O)(=O)O.CS(=O)(=O)O.Cc1cccc(/C=N/Nc2cc(N3CCOCC3)nc(OCCc3ccccn3)n2)c1 [Apilimod (mesylate)]
[8]; [17]
  % of CPE inhibition: 100%
[9]; [16]
  % of CPE inhibition: negligible antiviral activity

## c1ccc2c(c1)Sc1ccccc1N2CC1CN2CCC1CC2 (centres unmarked) [Mequitazine]
[8]; [17]
  % of CPE inhibition: modest efficacy in Vero cells only
[11]
  IC50: 7280 nM

## CN1CCCC(n2nc(Cc3ccc(Cl)cc3)c3ccccc3c2=O)CC1 (centres unmarked) [Azelastine]
[12]
  Viral load after nasal administration: significant viral load reduction

## CC(C)(C)[C@@H]1NC(=O)O[C@@H]2CCC[C@H]2OC/C=C/C(F)(F)c2nc3ccccc3nc2O[C@@H]2C[C@@H](C(=O)N[C@]3(C(=O)NS(=O)(=O)C4(C)CC4)C[C@H]3C(F)F)N(C2)C1=O [Glecaprevir]
[8]; [14]
  inhibition at 5 µM: 80 to 90%
[9]; [15]
  inhibition at 5 µM: 80 to 90%

## N#C[C@@]1(c2ccc3c(N)ncnn23)O[C@H](CO)[C@@H](O)[C@H]1O [GS‐441524]
[8]; Severe acute respiratory syndrome coronavirus 2, Vero
  inhibition at 5 µM: 80 to 90%
[9]; Severe acute respiratory syndrome coronavirus 2, Calu-3
  inhibition at 5 µM: 80 to 90%
[1]; Severe acute respiratory syndrome coronavirus 2, Calu-3, read-out: EC50 (CPE inhibition)
  EC50: 850 nM
